Ki data for 23 compounds are collected here from BindingDB's records for doi:10.1021/jm960441m (Upjohn, 1997).

Where only a bound is given, the exact number is not on record here.

The target of the first assay is T1, Dimer of Gag-Pol polyprotein [489-587] (Human immunodeficiency virus 1, UniProt P12497).
T1 construct: 489-587
Briefly: Protease Inhibition Assay.
Details: not given
The source says: HIV-1 protease was purified and refolded from E. coli inclusion bodies. […] In the presence of HIV-l protease, the substrate is rapidly cleaved into two parts. The biotinylated amino terminal fragment binds to the avidin beads while the FITC-containing carboxy1 terminal fragment is removed through the membrane. […] The bound fluorescence is obtained by processing on an IDEXX Screen Machine. Determination of Ki values with this assay requires analysis under conditions in which substrate concentration resides substantially below Km and the inhibitor concentrations greatly exceeds the Ki value and the enzyme concentration.
Usually Ki stands for the dissociation constant of the complex between target and ligand, obtained from inhibition or displacement. Read a low Ki as higher affinity. With `O=c1oc2c(c(O)c1C(c1cccc(NS(=O)(=O)c3ccc(F)cc3)c1)C1CC1)CCCCCC2` (stereo not drawn), the affinity corresponds to a Ki of 3.1 nM. In other words, the single-digit nanomolar range.
Same read-out and setting: the result for `O=c1oc2c(c(O)c1C(c1cccc(NS(=O)(=O)c3ccc(Cl)c(Cl)c3Cl)c1)C1CC1)CCCCCC2` (stereo not drawn) [2,3,4-trichloro-N-{3-[cyclopropyl({4-hydroxy-2-oxo-2H,5H,6H,7H,8H,9H,10H-cycloocta[b]pyran-3-yl})methyl]phenyl}benzene-1-sulfonamide] reads 8.8 nM.
The same measure, in the same setting: under `O=c1oc2c(c(O)c1C(c1cccc(NS(=O)(=O)c3cccc(Cl)c3Cl)c1)C1CC1)CCCCCC2` (stereo not drawn) [2,3-dichloro-N-{3-[cyclopropyl({4-hydroxy-2-oxo-2H,5H,6H,7H,8H,9H,10H-cycloocta[b]pyran-3-yl})methyl]phenyl}benzene-1-sulfonamide] stands 7.6 nM; under `O=c1oc2c(c(O)c1C(c1cccc(NS(=O)(=O)c3ccc(Cl)cc3Cl)c1)C1CC1)CCCCCC2` (stereo not drawn) [2,4-dichloro-N-{3-[cyclopropyl({4-hydroxy-2-oxo-2H,5H,6H,7H,8H,9H,10H-cycloocta[b]pyran-3-yl})methyl]phenyl}benzene-1-sulfonamide], 6.2 nM.
As for `O=c1oc2c(c(O)c1C(c1cccc(NS(=O)(=O)c3cc(Cl)ccc3Cl)c1)C1CC1)CCCCCC2` (stereo not drawn) [2,5-dichloro-N-{3-[cyclopropyl({4-hydroxy-2-oxo-2H,5H,6H,7H,8H,9H,10H-cycloocta[b]pyran-3-yl})methyl]phenyl}benzene-1-sulfonamide], the Ki was 74 nM.
On the same count and under the same terms, under `O=c1oc2c(c(O)c1C(c1cccc(NS(=O)(=O)c3c(Cl)cccc3Cl)c1)C1CC1)CCCCCC2` (stereo not drawn) [2,6-dichloro-N-{3-[cyclopropyl({4-hydroxy-2-oxo-2H,5H,6H,7H,8H,9H,10H-cycloocta[b]pyran-3-yl})methyl]phenyl}benzene-1-sulfonamide] stands > 200 nM; under `O=c1oc2c(c(O)c1C(c1cccc(NS(=O)(=O)c3ccc(Cl)c(Cl)c3)c1)C1CC1)CCCCCC2` (stereo not drawn) [3,4-dichloro-N-{3-[cyclopropyl({4-hydroxy-2-oxo-2H,5H,6H,7H,8H,9H,10H-cycloocta[b]pyran-3-yl})methyl]phenyl}benzene-1-sulfonamide], 4.1 nM.
Consider `O=c1oc2c(c(O)c1C(c1cccc(NS(=O)(=O)c3cc(Cl)cc(Cl)c3)c1)C1CC1)CCCCCC2` (stereo not drawn) [3,5-dichloro-N-{3-[cyclopropyl({4-hydroxy-2-oxo-2H,5H,6H,7H,8H,9H,10H-cycloocta[b]pyran-3-yl})methyl]phenyl}benzene-1-sulfonamide], for which the inhibition constant Ki worked out at 6.9 nM.
The same measure, in the same setting: under `[N-]=[N+]=Nc1ccc(S(=O)(=O)Nc2cccc(C(c3c(O)c4c(oc3=O)CCCCCC4)C3CC3)c2)cc1` (stereo not drawn) [4-azido-N-{3-[cyclopropyl({4-hydroxy-2-oxo-2H,5H,6H,7H,8H,9H,10H-cycloocta[b]pyran-3-yl})methyl]phenyl}benzene-1-sulfonamide] stands 2.6 nM; under `O=c1oc2c(c(O)c1C(c1cccc(NS(=O)(=O)c3ccc(Br)cc3)c1)C1CC1)CCCCCC2` (stereo not drawn) [4-bromo-N-{3-[cyclopropyl({4-hydroxy-2-oxo-2H,5H,6H,7H,8H,9H,10H-cycloocta[b]pyran-3-yl})methyl]phenyl}benzene-1-sulfonamide], 2.1 nM; under `O=c1oc2c(c(O)c1C(c1cccc(NS(=O)(=O)c3ccc(Cl)cc3)c1)C1CC1)CCCCCC2` (stereo not drawn) [4-chloro-N-{3-[cyclopropyl({4-hydroxy-2-oxo-2H,5H,6H,7H,8H,9H,10H-cycloocta[b]pyran-3-yl})methyl]phenyl}benzene-1-sulfonamide], 2.5 nM.
On the same count and under the same terms, the result for `N#Cc1ccc(S(=O)(=O)Nc2cccc(C(c3c(O)c4c(oc3=O)CCCCCC4)C3CC3)c2)nc1` (stereo not drawn) [5-cyano-N-{3-[cyclopropyl({4-hydroxy-2-oxo-2H,5H,6H,7H,8H,9H,10H-cycloocta[b]pyran-3-yl})methyl]phenyl}pyridine-2-sulfonamide] reads 1 nM; that for `O=c1oc2c(c(O)c1C(c1cccc(NS(=O)(=O)c3cccc4cccnc34)c1)C1CC1)CCCCCC2` (stereo not drawn) [N-[3-[Cyclopropyl(5,6,7,8,9,10-hexahydro-4-hydroxy-2-oxo-2H-cycloocta[b]pyran-3-yl)methyl]phenyl]-8-quinolinesulfonamide], 1.9 nM.
The same measure, in the same setting: the result for `O=c1oc2c(c(O)c1C(c1cccc(NS(=O)(=O)c3cscn3)c1)C1CC1)CCCCCC2` (stereo not drawn) [N-{3-[cyclopropyl({4-hydroxy-2-oxo-2H,5H,6H,7H,8H,9H,10H-cycloocta[b]pyran-3-yl})methyl]phenyl}-1,3-thiazole-4-sulfonamide] reads 1.6 nM.
For `O=c1oc2c(c(O)c1C(c1cccc(NS(=O)(=O)c3ccc(F)cc3F)c1)C1CC1)CCCCCC2` (stereo not drawn) [N-{3-[cyclopropyl({4-hydroxy-2-oxo-2H,5H,6H,7H,8H,9H,10H-cycloocta[b]pyran-3-yl})methyl]phenyl}-2,4-difluorobenzene-1-sulfonamide], the inhibition constant Ki was 4.1 nM.
Same read-out and setting: the result for `Cc1cccc(C)c1S(=O)(=O)Nc1cccc(C(c2c(O)c3c(oc2=O)CCCCCC3)C2CC2)c1` (stereo not drawn) [N-{3-[cyclopropyl({4-hydroxy-2-oxo-2H,5H,6H,7H,8H,9H,10H-cycloocta[b]pyran-3-yl})methyl]phenyl}-2,6-dimethylbenzene-1-sulfonamide] reads > 200 nM.

The same assay, now with this note: pH 5; 22 °C.
Compound `O=c1oc2c(c(O)c1C(c1cccc(NS(=O)(=O)c3ccccc3Cl)c1)C1CC1)CCCCCC2` (stereo not drawn) [2-chloro-N-{3-[cyclopropyl({4-hydroxy-2-oxo-2H,5H,6H,7H,8H,9H,10H-cycloocta[b]pyran-3-yl})methyl]phenyl}benzene-1-sulfonamide] gave a Ki of 9.3 nM.
Same read-out and setting: the result for `N#Cc1ccccc1S(=O)(=O)Nc1cccc(C(c2c(O)c3c(oc2=O)CCCCCC3)C2CC2)c1` (stereo not drawn) [2-cyano-N-{3-[cyclopropyl({4-hydroxy-2-oxo-2H,5H,6H,7H,8H,9H,10H-cycloocta[b]pyran-3-yl})methyl]phenyl}benzene-1-sulfonamide] reads 7.4 nM; that for `O=c1oc2c(c(O)c1C(c1cccc(NS(=O)(=O)c3cccc(Br)c3)c1)C1CC1)CCCCCC2` (stereo not drawn) [3-bromo-N-{3-[cyclopropyl({4-hydroxy-2-oxo-2H,5H,6H,7H,8H,9H,10H-cycloocta[b]pyran-3-yl})methyl]phenyl}benzene-1-sulfonamide], 2.6 nM; that for `O=c1oc2c(c(O)c1C(c1cccc(NS(=O)(=O)c3cccc(Cl)c3)c1)C1CC1)CCCCCC2` (stereo not drawn) [3-chloro-N-{3-[cyclopropyl({4-hydroxy-2-oxo-2H,5H,6H,7H,8H,9H,10H-cycloocta[b]pyran-3-yl})methyl]phenyl}benzene-1-sulfonamide], 2.7 nM.
Still for that read-out and setting: the result for `O=c1oc2c(c(O)c1C(c1cccc(NS(=O)(=O)/C=C/c3ccccc3)c1)C1CC1)CCCCCC2` (stereo not drawn) [(E)-N-{3-[cyclopropyl({4-hydroxy-2-oxo-2H,5H,6H,7H,8H,9H,10H-cycloocta[b]pyran-3-yl})methyl]phenyl}-2-phenylethene-1-sulfonamide] reads 3 nM; that for `O=c1oc2c(c(O)c1C(c1cccc(NS(=O)(=O)Cc3ccccc3)c1)C1CC1)CCCCCC2` (stereo not drawn) [N-[3-[Cyclopropyl(5,6,7,8,9,10-hexahydro-4-hydroxy-2-oxo-2H-cycloocta[b]pyran-3-yl)methyl]phenyl]benzenemethanesulfonamide], 13 nM; that for `O=c1oc2c(c(O)c1C(c1cccc(NS(=O)(=O)c3ccccc3C(F)(F)F)c1)C1CC1)CCCCCC2` (stereo not drawn) [N-{3-[cyclopropyl({4-hydroxy-2-oxo-2H,5H,6H,7H,8H,9H,10H-cycloocta[b]pyran-3-yl})methyl]phenyl}-2-(trifluoromethyl)benzene-1-sulfonamide], 21 nM.
